Here are results for two compounds from patent publication US20050249831A1, “Herbal extract comprising a mixture of saponins obtained from sapindus trifoliatus for anticonvulsant activity” (priority 2002, published 2005).

One may read the ED50 as the dose that gives a 50% effect, or the effect in half of the subjects.

Assay [1] has as its system PTZ induced seizures in rats. The format is in vivo. The following applies: 4 mg/kg, i.p., 2 ml/kg, standard control.
Assay [2] relates to MES induced seizures in rats. The assay is described as follows: Maximal Electroshock Seizure (MES) model. Type of assay: in vivo. Conditions: Rattus norvegicus, ip, read-out: ED50, protection to hind limb tonic extension due to electroshock. On the procedure: In order to evaluate the efficacy of the extract of Sapindus trifoliatus, for its prophylactic therapeutic potential in migraine, its role as an anticonvulsant was evaluated in an in vivo animal model. […]
Male Wistar rats (150-200 g) were used in the study. […] Mortality if any was recorded. […]
Values of incidence and mortality were expressed as ratios and analysed by Fisher's test. The latency for onset and duration of hind limb extension of maximal electroshock induced convulsions were averaged, expressed as mean±standard deviation. Mean values were analysed by one way ANOVA followed by Dunnett ‘t’ test for multiple comparison or Students ‘t’ test for comparing two means. […] ED50 values were calculated by probit analysis [Finney, D. J., Probit Analysis, Cambridge University Press, London, 1947].
A general note: The maximal electroshock test induces tonic seizures with an electrical stimulus.

With `CN1C(=O)CN=C(c2ccccc2)c2cc(Cl)ccc21` [diazepam, Diazepam], in assay [1], the “Protection against PTZ induced seizures” value is recorded as “significantly protected”.

As to `CCCC(CCC)C(=O)[O-].[Na+]` [Sodium valproate], the ED50 in assay [2] is 67.7 mg/kg.
